Test results as given in patent US20260028326A1, “COMPOUND BASED ON ISOINDOLINE-SUBSTITUTED GLUTARIMIDE BACKBONE AND USE THEREOF” (GLUETACS THERAPEUTICS (SHANGHAI) CO., LTD., priority 2022, published 2026).

Experiments:
[1] = target: human Cereblon WT GST-tagged protein (Homo sapiens (Human), UniProt Q96SW2); assay: CRBN-binding affinity, HTRF (CEREBLON BINDING kit)
Summary of the method: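 HTRF competition readout: compounds compete with a thalidomide-Re conjugate for GST-tagged wild-type human CRBN detected via Eu-labelled anti-GST antibody. Inhibition rate derived relative to protein-free blank wells.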

Mino cells = assay: Tumor cell proliferation IC50 (CCK-8), Mino; details: Homo sapiens, 72 h, read-out: IC50 for inhibiting the proliferation of tumor cells, Mino;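 note: cell viability assessed with CCK-8 reagent after compound exposure, IC50 derived from plotted growth inhibition curves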
IKZF1 protein = IKZF1 protein (Homo sapiens (Human), UniProt Q13422+Q96SW2); assay: Western-blot assay of substrate protein degradation in hPBMC, IKZF1; format: cell-based; details: for residual substrate protein level, IKZF1: hPBMC cells, compound 500 nM, 24 hours, Western blot
Sequence of IKZF1 protein (Q13422 whole entry): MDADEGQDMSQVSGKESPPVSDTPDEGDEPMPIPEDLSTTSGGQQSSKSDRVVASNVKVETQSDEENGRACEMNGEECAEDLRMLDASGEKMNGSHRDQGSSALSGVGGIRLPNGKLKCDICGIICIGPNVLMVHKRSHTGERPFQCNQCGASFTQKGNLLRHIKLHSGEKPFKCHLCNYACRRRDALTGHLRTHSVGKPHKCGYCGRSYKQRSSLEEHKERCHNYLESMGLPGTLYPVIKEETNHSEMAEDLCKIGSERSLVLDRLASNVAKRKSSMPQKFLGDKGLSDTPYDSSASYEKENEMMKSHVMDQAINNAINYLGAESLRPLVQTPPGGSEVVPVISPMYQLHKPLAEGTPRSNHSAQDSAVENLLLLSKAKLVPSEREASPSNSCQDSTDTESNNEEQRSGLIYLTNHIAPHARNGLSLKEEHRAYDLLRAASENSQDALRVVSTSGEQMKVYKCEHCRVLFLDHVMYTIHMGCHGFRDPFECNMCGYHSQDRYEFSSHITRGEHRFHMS
Sequence of IKZF1 protein (Q96SW2 whole entry): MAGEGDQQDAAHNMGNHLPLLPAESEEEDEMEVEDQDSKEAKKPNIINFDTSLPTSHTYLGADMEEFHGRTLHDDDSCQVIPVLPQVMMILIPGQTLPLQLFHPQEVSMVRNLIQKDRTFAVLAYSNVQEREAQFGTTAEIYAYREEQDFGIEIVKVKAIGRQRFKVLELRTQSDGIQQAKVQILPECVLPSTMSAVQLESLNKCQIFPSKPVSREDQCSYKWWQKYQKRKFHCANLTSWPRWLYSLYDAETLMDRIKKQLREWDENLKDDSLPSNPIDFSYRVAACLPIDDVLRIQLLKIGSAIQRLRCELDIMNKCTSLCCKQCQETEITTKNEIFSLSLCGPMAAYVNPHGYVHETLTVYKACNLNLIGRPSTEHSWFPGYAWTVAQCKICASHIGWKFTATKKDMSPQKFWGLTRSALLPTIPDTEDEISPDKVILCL
Sequence of IKZF1 protein (Q16531 whole entry partner): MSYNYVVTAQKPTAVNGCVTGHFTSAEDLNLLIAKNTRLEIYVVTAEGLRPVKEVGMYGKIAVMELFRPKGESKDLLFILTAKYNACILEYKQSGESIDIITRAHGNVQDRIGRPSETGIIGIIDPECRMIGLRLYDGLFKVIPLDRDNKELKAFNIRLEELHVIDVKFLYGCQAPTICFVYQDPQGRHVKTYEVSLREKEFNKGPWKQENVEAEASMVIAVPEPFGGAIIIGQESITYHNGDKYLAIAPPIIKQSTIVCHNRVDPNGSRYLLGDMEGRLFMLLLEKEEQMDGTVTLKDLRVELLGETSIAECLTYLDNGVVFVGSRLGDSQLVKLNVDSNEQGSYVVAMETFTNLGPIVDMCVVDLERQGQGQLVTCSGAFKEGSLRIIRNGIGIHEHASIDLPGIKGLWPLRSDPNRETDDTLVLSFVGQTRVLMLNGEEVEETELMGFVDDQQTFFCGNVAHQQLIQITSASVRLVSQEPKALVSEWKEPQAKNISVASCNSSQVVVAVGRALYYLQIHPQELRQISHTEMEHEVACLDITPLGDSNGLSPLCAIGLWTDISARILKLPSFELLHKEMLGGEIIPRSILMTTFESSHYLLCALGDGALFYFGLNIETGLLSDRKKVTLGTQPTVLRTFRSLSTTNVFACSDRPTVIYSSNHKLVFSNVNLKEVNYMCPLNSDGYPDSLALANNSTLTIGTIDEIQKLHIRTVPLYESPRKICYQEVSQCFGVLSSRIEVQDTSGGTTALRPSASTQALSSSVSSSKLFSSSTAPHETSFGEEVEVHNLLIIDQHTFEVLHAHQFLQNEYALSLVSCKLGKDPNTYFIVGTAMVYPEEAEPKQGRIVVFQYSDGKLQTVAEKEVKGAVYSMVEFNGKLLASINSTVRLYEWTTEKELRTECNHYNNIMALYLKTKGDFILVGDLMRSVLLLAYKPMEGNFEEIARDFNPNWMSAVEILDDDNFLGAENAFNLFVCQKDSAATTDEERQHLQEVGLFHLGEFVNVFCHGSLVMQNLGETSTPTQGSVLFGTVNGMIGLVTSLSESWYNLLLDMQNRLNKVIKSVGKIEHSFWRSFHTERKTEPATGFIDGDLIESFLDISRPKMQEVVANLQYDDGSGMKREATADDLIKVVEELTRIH

IKZF3 protein = IKZF3 protein (Homo sapiens (Human), UniProt Q96SW2+Q9UKT9); assay: Western-blot assay of substrate protein degradation in hPBMC, IKZF3; format: cell-based; details: for residual substrate protein level, IKZF3: hPBMC cells, compound 500 nM, 24 hours, Western blot
Sequence of IKZF3 protein (Q9UKT9 whole entry): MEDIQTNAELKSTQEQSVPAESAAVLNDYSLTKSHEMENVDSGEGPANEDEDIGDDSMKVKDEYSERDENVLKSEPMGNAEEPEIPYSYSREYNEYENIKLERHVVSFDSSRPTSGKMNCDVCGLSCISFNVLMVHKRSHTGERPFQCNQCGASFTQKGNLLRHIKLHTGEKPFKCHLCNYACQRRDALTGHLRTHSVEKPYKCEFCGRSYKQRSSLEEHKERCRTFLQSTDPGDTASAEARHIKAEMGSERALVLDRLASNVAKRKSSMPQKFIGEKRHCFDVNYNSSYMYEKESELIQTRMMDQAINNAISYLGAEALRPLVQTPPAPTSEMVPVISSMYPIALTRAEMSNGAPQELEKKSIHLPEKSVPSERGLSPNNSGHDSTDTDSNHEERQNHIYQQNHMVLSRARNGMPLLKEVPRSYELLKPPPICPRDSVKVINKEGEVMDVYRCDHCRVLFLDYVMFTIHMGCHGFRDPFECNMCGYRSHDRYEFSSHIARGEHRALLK
Sequence of IKZF3 protein (Q96SW2 whole entry): as the sequence (Q96SW2 whole entry) above
Sequence of IKZF3 protein (Q16531 whole entry partner): as the sequence (Q16531 whole entry partner) above

GSPT1 protein = GSPT1 protein (Homo sapiens (Human), UniProt P15170+Q96SW2); assay: Western-blot assay of substrate protein degradation in hPBMC, GSPT1; format: cell-based; details: for residual substrate protein level, GSPT1: hPBMC cells, compound 500 nM, 24 hours, Western blot
Sequence of GSPT1 protein (P15170 whole entry): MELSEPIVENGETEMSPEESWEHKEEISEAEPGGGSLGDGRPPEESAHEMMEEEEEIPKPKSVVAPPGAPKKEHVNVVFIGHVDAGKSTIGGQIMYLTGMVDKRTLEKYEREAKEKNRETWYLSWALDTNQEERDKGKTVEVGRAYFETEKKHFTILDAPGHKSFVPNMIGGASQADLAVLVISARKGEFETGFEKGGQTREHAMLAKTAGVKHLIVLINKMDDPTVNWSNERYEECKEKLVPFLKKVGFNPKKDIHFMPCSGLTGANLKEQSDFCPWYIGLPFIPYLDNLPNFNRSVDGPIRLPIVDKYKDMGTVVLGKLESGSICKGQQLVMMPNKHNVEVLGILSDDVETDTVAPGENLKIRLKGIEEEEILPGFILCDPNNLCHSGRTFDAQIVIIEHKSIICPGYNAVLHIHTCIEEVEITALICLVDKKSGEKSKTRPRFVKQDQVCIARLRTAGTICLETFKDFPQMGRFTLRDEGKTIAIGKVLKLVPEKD
Sequence of GSPT1 protein (Q96SW2 whole entry): as the sequence (Q96SW2 whole entry) above
Sequence of GSPT1 protein (Q16531 whole entry partner): as the sequence (Q16531 whole entry partner) above

MM.1S cells = assay: Tumor cell proliferation IC50 (CCK-8), MM.1S; details: Homo sapiens, MM1.S, 72 h, read-out: IC50 for inhibiting the proliferation of tumor cells, MM.1S;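 note: viability of cultured cells read by CCK-8 reagent after compound exposure, growth inhibition curves fitted to derive IC50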
Protocol: The tumor cells used herein were cultured in a cell culture medium listed in table A at 37° C. in an incubator with 5% CO2.
After the cells were treated with the compounds of the present disclosure for a period of time, the cell viability detection reagent was added to the culture medium for cell viability assessment according to the instructions provided with the CCK-8 kit. […] The growth inhibition of the compounds of the present disclosure on cells was plotted by Prism Graphpad software, and the IC50 values of the compounds of the present disclosure were calculated therefrom.

[2] = hPBMC, 24 h, serially diluted 0.03-1000 nM

Sequence of human Cereblon WT GST-tagged protein (Q96SW2 whole entry): as the sequence (Q96SW2 whole entry) above

| SMILES | IC50 [1] | IC50 (Mino cells) | residual substrate protein level, IKZF1 (IKZF1 protein) | residual substrate protein level, IKZF3 (IKZF3 protein) | residual substrate protein level, GSPT1 (GSPT1 protein) | IC50 (MM.1S cells) | concentration at which significant degradation effects on IKZF1 protein are exhibited (FIG. 1) (IKZF1 protein; [2]) | concentration at which significant degradation effects on IKZF3 protein are exhibited (FIG. 1) (IKZF3 protein; [2]) | concentration at which significant degradation effects on GSPT1 protein are exhibited (FIG. 1) (GSPT1 protein; [2]) |
| --- | --- | --- | --- | --- | --- | --- | --- | --- | --- |
| O=C1CCC(N2Cc3cc(CN4CCN(Cc5cccc(-c6ccco6)c5)CC4)ccc3C2=O)C(=O)N1 (stereo not drawn) [GT-05692, 3-(5-((4-(3-(furan-2-yl)benzyl)piperazin-1-yl)methyl)-1-oxoisoindolin-2-yl)piperidine-2,6-dione] | 0.47 µM | 0.1 to 0.5 µM | – | – | – | – | – | – | – |
| O=C1CCC(N2C(=O)c3ccc(CN4CCN(Cc5ccc(-c6ccncc6)nc5)CC4)cc3C2=O)C(=O)N1 (stereo not drawn) [GT-05634, 5-((4-([2,4′-bipyridin]-5-ylmethyl)piperazin-1-yl)methyl)-2-(2,6-dioxopiperidin-3-yl)isoindoline-1,3-dione] | – | 0.5 to 1 µM | A (A represents a residual substrate protein level of <50%) | A (A represents a residual substrate protein level of <50%) | B (B represents a residual substrate protein level of >50%) | – | – | – | – |
| O=C1CCC(N2C(=O)c3ccc(CN4CCN(Cc5cnc(-c6ccccc6)cn5)CC4)cc3C2=O)C(=O)N1 (stereo not drawn) [GT-05545, 2-(2,6-dioxopiperidin-3-yl)-5-((4-((5-phenylpyrazin-2-yl)methyl)piperazin-1-yl)methyl)isoindoline-1,3-dione] | – | 0.5 to 1 µM | B (B represents a residual substrate protein level of >50%) | A (A represents a residual substrate protein level of <50%) | B (B represents a residual substrate protein level of >50%) | – | – | – | – |
| O=C1CCC(N2Cc3c(ccc(CN4C5CC4CN(Cc4ccccc4-c4ccc(Cl)cc4)C5)c3F)C2=O)C(=O)N1 (stereo not drawn) [GT-05608, 3-(5-((3-((4′-chloro-[1,1′-biphenyl]-2-yl)methyl)-3,6-diazabicyclo[3.1.1]heptan-6-yl)methyl)-4-fluoro-1-oxoisoindolin-2-yl)piperidine-2,6-dione] | 0.8 µM | 0.5 to 1 µM | B (B represents a residual substrate protein level of >50%) | A (A represents a residual substrate protein level of <50%) | A (A represents a residual substrate protein level of <50%) | – | – | – | – |
| O=C1CCC(N2Cc3cc(CN4CCN(Cc5ccc(-c6cccs6)o5)CC4)ccc3C2=O)C(=O)N1 (stereo not drawn) [GT-05627, 3-(1-oxo-5-((4-((5-(thiophen-2-yl)furan-2-yl)methyl)piperazin-1-yl)methyl)isoindolin-2-yl)piperidine-2,6-dione] | 0.26 µM | 0.1 to 0.5 µM | – | – | – | – | – | – | – |
| O=C1CCC(N2Cc3cc(CN4CCN(Cc5ccc(-c6ccc[nH]6)cc5)CC4)ccc3C2=O)C(=O)N1 (stereo not drawn) [GT-05734, 3-(5-((4-(4-(1H-pyrrol-2-yl)benzyl)piperazin-1-yl)methyl)-1-oxoisoindolin-2-yl)piperidine-2,6-dione] | 0.11 µM | 0.1 to 0.5 µM | B (B represents a residual substrate protein level of >50%) | A (A represents a residual substrate protein level of <50%) | B (B represents a residual substrate protein level of >50%) | – | – | – | – |
| CC1(C)CCC(C(=O)N2CC3CC2CN3Cc2ccc3c(c2)CN(C2CCC(=O)NC2=O)C3=O)=C(c2ccc(F)cc2)C1 (stereo not drawn) [GT-05403, 3-(5-((5-(4′-fluoro-5,5-dimethyl-3,4,5,6-tetrahydro-[1,1′-biphenyl]-2-carbonyl)-2,5-diazabicyclo[2.2.1]heptan-2-yl)methyl)-1-oxoisoindolin-2-yl)piperidine-2,6-dione] | 0.55 µM | – | – | – | – | 0.005 to 0.01 µM | – | – | – |
| CC1(C)CCC(CN2CC3(C2)CN(Cc2ccc4c(c2)CN(C2CCC(=O)NC2=O)C4=O)C3)=C(c2ccc(Cl)cc2)C1 (stereo not drawn) [GT-05685, 3-(5-((6-((4′-chloro-5,5-dimethyl-3,4,5,6-tetrahydro-[1,1′-biphenyl]-2-yl)methyl)-2,6-diazaspiro[3.3]heptan-2-yl)methyl)-1-oxoisoindolin-2-yl)piperidine-2,6-dione] | 1.16 µM | 0.1 to 0.5 µM | – | – | – | – | – | – | – |
| O=C1CCC(N2Cc3cc(CN4CCN(Cc5ccc(-c6ccc(Cl)cn6)cc5)CC4)ccc3C2=O)C(=O)N1 (stereo not drawn) [GT-05872, 3-(5-((4-(4-(5-chloropyridin-2-yl)benzyl)piperazin-1-yl)methyl)-1-oxoisoindolin-2-yl)piperidine-2,6-dione] | – | – | A (A represents a residual substrate protein level of <50%) | B (B represents a residual substrate protein level of >50%) | B (B represents a residual substrate protein level of >50%) | 0.5 to 1 µM | – | – | – |
| O=C1CCC(N2Cc3cc(CN4CCN(Cc5cccc(-c6ccc(Cl)cn6)c5)CC4)ccc3C2=O)C(=O)N1 (stereo not drawn) [GT-05596, 3-(5-((4-(3-(5-chloropyridin-2-yl)benzyl)piperazin-1-yl)methyl)-1-oxoisoindolin-2-yl)piperidine-2,6-dione] | 1.34 µM | 0.01 to 0.05 µM | A (A represents a residual substrate protein level of <50%) | A (A represents a residual substrate protein level of <50%) | B (B represents a residual substrate protein level of >50%) | – | < 3 nM | < 3 nM | < 3 nM |
| O=C1CCC(N2C(=O)c3ccc(N4C5CCC4CN(Cc4ccccc4-c4ccc(Cl)cc4)C5)cc3C2=O)C(=O)N1 (stereo not drawn) [GT-05370, 5-(3-((4′-chloro-[1,1′-biphenyl]-2-yl)methyl)-3,8-diazabicyclo[3.2.1]octan-8-yl)-2-(2,6-dioxopiperidin-3-yl)isoindoline-1,3-dione] | – | – | B (B represents a residual substrate protein level of >50%) | A (A represents a residual substrate protein level of <50%) | A (A represents a residual substrate protein level of <50%) | < 0.005 µM | – | – | – |
| O=C1CCC(N2Cc3cc(CN4CCN(Cc5ccc(-c6ccco6)o5)CC4)ccc3C2=O)C(=O)N1 (stereo not drawn) [GT-05695, 3-(5-((4-([2,2′-bifuran]-5-ylmethyl)piperazin-1-yl)methyl)-1-oxoisoindolin-2-yl)piperidine-2,6-dione] | 0.25 µM | 0.1 to 0.5 µM | A (A represents a residual substrate protein level of <50%) | A (A represents a residual substrate protein level of <50%) | B (B represents a residual substrate protein level of >50%) | – | – | – | – |
| CC1(C)CCC(CN2CC3CCC(C2)N3Cc2ccc3c(c2F)CN(C2CCC(=O)NC2=O)C3=O)=C(c2ccc(Cl)cc2)C1 (stereo not drawn) [GT-03890, 3-(5-((3-((4′-chloro-5,5-dimethyl-3,4,5,6-tetrahydro-[1,1′-biphenyl]-2-yl)methyl)-3,8-diazabicyclo[3.2.1]octan-8-yl)methyl)-4-fluoro-1-oxoisoindolin-2-yl)piperidine-2,6-dione] | 0.51 µM | – | B (B represents a residual substrate protein level of >50%) | A (A represents a residual substrate protein level of <50%) | A (A represents a residual substrate protein level of <50%) | – | – | – | – |
| CC1(C)CCC(CN2CC3(C2)CN(Cc2ccc4c(c2)CN(C2CCC(=O)NC2=O)C4=O)C3)=C(c2ccc(F)cc2)C1 (stereo not drawn) [GT-05670, 3-(5-((6-((4′-fluoro-5,5-dimethyl-3,4,5,6-tetrahydro-[1,1′-biphenyl]-2-yl)methyl)-2,6-diazaspiro[3.3]heptan-2-yl)methyl)-1-oxoisoindolin-2-yl)piperidine-2,6-dione] | 0.62 µM | – | A (A represents a residual substrate protein level of <50%) | A (A represents a residual substrate protein level of <50%) | A (A represents a residual substrate protein level of <50%) | – | – | – | – |
| O=C1CCC(N2Cc3cc(CN4CCN(Cc5cccc(-c6cccs6)c5)CC4)ccc3C2=O)C(=O)N1 (stereo not drawn) [GT-05597, 3-(1-oxo-5-((4-(3-(thiophen-2-yl)benzyl)piperazin-1-yl)methyl)isoindolin-2-yl)piperidine-2,6-dione] | 1.4 µM | 0.1 to 0.5 µM | – | – | – | – | – | – | – |
| CC1(C)CCC(C(=O)N2C3CC2CN(Cc2ccc4c(c2)CN(C2CCC(=O)NC2=O)C4=O)C3)=C(c2ccc(F)cc2)C1 (stereo not drawn) [GT-05515, 3-(5-((6-(4′-fluoro-5,5-dimethyl-3,4,5,6-tetrahydro-[1,1′-biphenyl]-2-carbonyl)-3,6-diazabicyclo[3.1.1]heptan-3-yl)methyl)-1-oxoisoindolin-2-yl)piperidine-2,6-dione] | 1.01 µM | – | B (B represents a residual substrate protein level of >50%) | B (B represents a residual substrate protein level of >50%) | A (A represents a residual substrate protein level of <50%) | – | – | – | – |
| O=C1CCC(N2Cc3cc(CN4CCN(Cc5cccc(-c6ccc(Cl)cc6)c5)CC4)ccc3C2=O)C(=O)N1 (stereo not drawn) [GT-05629, 3-(5-((4-((4′-chloro-[1,1′-biphenyl]-3-yl)methyl)piperazin-1-yl)methyl)-1-oxoisoindolin-2-yl)piperidine-2,6-dione] | 1.28 µM | 0.1 to 0.5 µM | – | – | – | – | – | – | – |
